Measured values reported in publication PMC8893300, “A Dynamic Mass Redistribution Assay for the Human Sweet Taste Receptor Uncovers G-Protein Dependent Biased Ligands” (Frontiers in Pharmacology, 2022).
Where two headings read alike, the source gives them in different places. Marks after values point to notes of the source that are not given here.

Target: T1, human sweet taste receptor (hT1R2/hT1R3) coupled to Gα15 (Homo sapiens, UniProt Q7RTX0+Q8TE23)
T1 construct: expressed in transfected cells
T1 sequence (Q8TE23 20-839): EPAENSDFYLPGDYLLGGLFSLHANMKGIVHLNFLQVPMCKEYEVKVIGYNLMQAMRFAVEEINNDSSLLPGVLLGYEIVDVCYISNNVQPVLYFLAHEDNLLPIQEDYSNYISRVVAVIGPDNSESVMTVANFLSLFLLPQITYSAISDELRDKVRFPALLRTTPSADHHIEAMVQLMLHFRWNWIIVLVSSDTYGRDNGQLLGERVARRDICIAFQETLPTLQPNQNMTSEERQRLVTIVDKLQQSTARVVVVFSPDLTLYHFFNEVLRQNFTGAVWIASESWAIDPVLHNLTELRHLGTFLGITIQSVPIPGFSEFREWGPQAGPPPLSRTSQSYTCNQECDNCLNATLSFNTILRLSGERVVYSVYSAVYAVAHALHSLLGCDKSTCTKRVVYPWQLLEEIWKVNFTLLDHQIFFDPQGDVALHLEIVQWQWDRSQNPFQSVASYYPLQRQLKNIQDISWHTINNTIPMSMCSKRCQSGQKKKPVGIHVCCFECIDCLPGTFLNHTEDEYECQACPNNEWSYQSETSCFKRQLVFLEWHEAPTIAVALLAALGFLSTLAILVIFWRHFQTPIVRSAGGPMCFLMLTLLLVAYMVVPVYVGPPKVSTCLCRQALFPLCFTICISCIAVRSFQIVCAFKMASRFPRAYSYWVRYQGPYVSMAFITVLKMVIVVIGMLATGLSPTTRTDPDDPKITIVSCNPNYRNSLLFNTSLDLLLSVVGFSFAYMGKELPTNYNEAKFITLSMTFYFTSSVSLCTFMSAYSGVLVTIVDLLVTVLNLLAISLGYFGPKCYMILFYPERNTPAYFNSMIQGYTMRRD
T1 sequence (Q7RTX0 21-852): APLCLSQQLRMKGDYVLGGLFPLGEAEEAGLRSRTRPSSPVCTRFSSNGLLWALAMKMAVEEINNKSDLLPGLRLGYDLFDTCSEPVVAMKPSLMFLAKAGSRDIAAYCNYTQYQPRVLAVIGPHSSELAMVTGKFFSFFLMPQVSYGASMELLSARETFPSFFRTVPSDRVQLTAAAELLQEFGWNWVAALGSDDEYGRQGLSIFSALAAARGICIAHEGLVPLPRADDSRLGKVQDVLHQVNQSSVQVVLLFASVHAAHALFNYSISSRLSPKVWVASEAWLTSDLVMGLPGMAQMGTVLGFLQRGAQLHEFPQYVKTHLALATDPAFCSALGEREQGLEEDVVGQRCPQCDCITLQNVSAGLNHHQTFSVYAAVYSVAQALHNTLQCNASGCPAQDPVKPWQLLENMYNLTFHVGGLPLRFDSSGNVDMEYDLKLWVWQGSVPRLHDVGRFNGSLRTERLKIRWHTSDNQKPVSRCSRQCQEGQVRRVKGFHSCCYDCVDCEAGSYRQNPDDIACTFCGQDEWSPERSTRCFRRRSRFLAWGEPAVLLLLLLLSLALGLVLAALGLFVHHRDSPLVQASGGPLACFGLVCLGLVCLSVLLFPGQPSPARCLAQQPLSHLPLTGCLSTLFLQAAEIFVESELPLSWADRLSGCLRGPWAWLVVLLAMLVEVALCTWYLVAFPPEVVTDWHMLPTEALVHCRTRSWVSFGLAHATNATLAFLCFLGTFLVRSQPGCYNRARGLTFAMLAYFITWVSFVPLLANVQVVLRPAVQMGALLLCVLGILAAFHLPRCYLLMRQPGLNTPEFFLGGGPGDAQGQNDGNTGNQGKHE
Assay: FLIPR calcium mobilization assay, R2/R3 U2OS cells transduced with Gα15 baculovirus
Format: cell-based
Settings: for ΔlogR FLIPR Mean: FLIPR-Gα15, operational model, logR minus sucralose logR; for Activity in FLIPR assay Emax: Gα15, top asymptote of dose-response normalized to 1 mM sucralose; for EC50: R2/R3 U2OS cells expressing Gα15; for Bias factor: inverse log of ΔΔlogR, FLIPR-Gα15 vs DMR; for ΔΔlogR Mean: ΔlogR FLIPR-Gα15 minus ΔlogR DMR; for fold difference DMR EC50 vs FLIPR EC50 (more potent in FLIPR): DMR EC50 over FLIPR-Gα15 EC50

[1] = read-out: Activity in FLIPR assay EC50
[2] = read-out: Activity in FLIPR assay pEC50 (converted)

Row | ΔlogR FLIPR Mean | Activity in FLIPR assay Emax | EC50 [1] | EC50 [2] | Bias factor | ΔΔlogR Mean | fold difference DMR EC50 vs FLIPR EC50 (more potent in FLIPR) | Structure (SMILES)
1 | 1.65 | 116**** | 1.6 µM | 1.53 µM | 3.2 | 0.50 | – | COC(=O)[C@H](Cc1ccccc1)NC(=O)[C@H](CC(=O)O)NCCC(C)(C)C [Neotame]
2 | 3.11 | 181**** | 0.07 µM | 0.0745 µM | 3.9 | 0.59 | about 10 times | CC(C)Oc1ccc(NC(=S)NCc2ccc[nH]2)cc1 [S819]
3 | 2.52 | 177**** | 0.3 µM | 0.335 µM | 4.8 | 0.68 | about 10 times | CC(C)Oc1ccc(NC(=S)NCc2cccs2)cc1 [S5227]
